Results published in patent publication US20200009185A1, “METHOD FOR MAINTAINING INCREASED […] p53 LEVEL, INDUCED BY […]-BASED […] DRUG, AND APPLICATION THEREOF” (priority 2015, published 2020).

Assays:
[1] = system: Hela cells; assay: Western blot of TP53 and HPV E6/E7 after HPV E6/E7 siRNA and cisplatin (Example 1-1); type: cell-based, human; conditions: Hela cells transformed with HPV E6/E7 siRNA, 10 μM cisplatin for 24 hours; FIG. 1A
Protocol: Cervical cancer cell and HeLa cervical cancer cell lines (HeLa; ATCC CCL-2) infected with HPV type 18 virus and SiHa cervical cancer cell lines (SiHa; ATCC HTB-35) infected with HPV type 16 virus were plated on a 6-well plate with 5×10^4 or 1×10^5 cells and cultured in RPMI 1640 or DMEM medium for 24 hours at 37° C. and 5% carbon dioxide, respectively. siRNA intracellular transfection was performed with DharmaFect (Dharmacon, Lafayette, Colo., USA) according to manufacturer's instructions.
HeLa cervical carcinoma cells infected with HPV type 18 virus were transformed by pooling with each of siRNAs of 426 and 450 sequences, or respectively. The HPV type 16 virus-infected siHa cell line was transformed by pooling siRNAs of 366, 448 and 497 sequences, or respectively.
In the Western blot, whole-cell lysate was extracted with RIPA buffer (10 mM Tris ([…]), 0.15 M NaCl, 5 mM EDTA, 1% Triton X-100, 0.5% deoxycholic acid sodium salt and 0.1% SDS). After centrifugation, the protein concentration of the supernatant was measured using a BCA protein assay kit (Thermo Fisher Scientific Inc). Protein samples were placed in sample buffer and boiled for 5 minutes for complete denaturation. The samples were then applied to 6%, 10%, or 15% polyacrylamide gels and transferred to a 0.4 μm PVDF membrane (Milipore, Bilerica). […] Finally, the expression level of the protein was detected using ECL solution. […]

[2] = system: human cervical cancer cells; assay: Tumor growth in animal model transplanted with human cervical cancer cells; type: in vivo; conditions: low concentration of cisplatin
[3] = system: Hela cells; assay: TP53 and E2F luciferase reporter assay (Example 1-3); type: cell-based, human; conditions: Hela cells treated with cisplatin and HPV E6/E7 siRNA; FIG. 1C
Protocol: (§1) The above luciferase reporter vector system was purchased from Clontech pathway profiling system (Mountain View, Calif., USA). Luciferase assay was performed using Dual-Luciferase Reporter Assay System (Promega) after 24 hours of transfection, and luminescence activity was measured using a GENios Pro microplate reader (Tecan Trading AG, Mannedorf, Switzerland).

[4] = system: CaSki cells; assay: as above; type: cell-based, human; conditions: CaSki cells treated with cisplatin and HPV E6/E7 siRNA; FIG. 1C
Protocol: as §1

[5] = system: CaSki cells; assay: Western blot of TP53 and HPV E6/E7 after HPV E6/E7 siRNA and cisplatin (Example 1-1); type: cell-based, human; conditions: CaSki cells transformed with HPV E6/E7 siRNA, 10 μM cisplatin for 24 hours; FIG. 1A
[6] = system: cervical cancer cell lines; assay: Expression level of intracellular p53 over time in cervical cancer cell lines; type: cell-based
[7] = system: Hela cells; assay: WST cell viability analysis (Example 1-2); type: cell-based, human; conditions: Hela cells transformed with HPV E6/E7 siRNA, 10 μM cisplatin 24 hours, vs group not treated with cisplatin; FIG. 1B
Protocol: (§2) WST analysis was performed to confirm cell viability.
(§3) Cell counts were determined by water soluble tetrazolium salts (WST) (EZ-Cytox kit; Daeil Lab Service, Seoul, Korea). EZ-Cytox solution (50 μl) added to each well of a 12-well plate and incubated for 2 to 3 hours. Live cells were measured (485 nm) using a GENios Pro microplate reader (Tecan Trading AG, Mannedorf, Switzerland) in a 96-well plate.

[8] = system: CaSki cells; assay: WST cell viability analysis (Example 1-2); type: cell-based, human; conditions: CaSki cells transformed with HPV E6/E7 siRNA, 10 μM cisplatin 24 hours, vs group not treated with cisplatin; FIG. 1B
Protocol: as §2, §3

[9] = system: Hela cells; assay: Western blot of TP53, RB, E6, E7 at time points (Example 1-4); type: cell-based, human; conditions: Hela cells transformed with HPV E6/E7 siRNA then treated with cisplatin; FIG. 1D, 1E
Text: (§4) Cell lysates were then obtained and subjected to western blotting.
(§5) In western blotting, antibodies of Santa Cruz Biotechnology ([…], Calif.) were used for TP53 [DO7], HPV 18-E6 [G7], HPV 16-E6 [C1P5], HPV 18-E7 [F7], HPV 16-E7 [ED17], E2F-1 [KH195], Cyclin-E [M20], β-Actin [C4] and antibody of BD Pharmingen was used for RB [554164], antibody of cell signaling was used for phospho-TP53 (ser-15) [9284].

[10] = system: CaSki cells; assay: as above; type: cell-based, human; conditions: CaSki cells transformed with HPV E6/E7 siRNA then treated with cisplatin; FIG. 1D, 1E
Text: as §4, §5

N.N.[Cl][Pt][Cl] [cisplatin, cis-diamminedichloroplatinum [II]]
amount of HPV E6/E7 protein expression [1]: not observed
amount of TP53 expression [1]: increased
tumor growth inhibitory effect [2]: no tumor growth inhibitory effect
activity of E2F (luciferase reporter) [3]: further decrease
activity of TP53 (luciferase reporter) [3]: increase
activity of E2F (luciferase reporter) [4]: further decrease
activity of TP53 (luciferase reporter) [4]: increase
amount of HPV E6/E7 protein expression [5]: not observed
amount of TP53 expression [5]: increased
expression level of intracellular p53 [6]: in the form of a pulse and repeatedly increased and decreased
cell viability [7]: decreased
cell viability [8]: decreased
expression level of TP53 [9]: increased
expression level of pRB [9]: increased
expression levels of 18-E6 and 18-E7 [9]: decreased
expression level of TP53 [10]: increased
expression level of pRB [10]: increased
expression levels of 16-E6 and 16-E7 [10]: decreased
